Test results published in the supplement of paper PMC10307832.

Assays:
Assay in all cases: relative viability (nuclei count vs DMSO), 5 days (fraction); higher = more cells survive
[1] = compound: CN(NC(=O)CC(=O)NN(C)C(=S)c1ccccc1)C(=S)c1ccccc1 [Elesclomol] + CC(=O)Nc1cccc(-n2c(=O)n(C3CC3)c(=O)c3c(Nc4ccc(I)cc4F)n(C)c(=O)c(C)c32)c1 [Trametinib] (partner 0.02 µM)
Summary of the method: (§1)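 Five library-drug doses in √10 steps were combined with a fixed anchor-drug dose, or a single drug was given alone, by pin tool to lung cancer cell lines in 1536-well plates the day after seeding. Nuclei were stained and counted after 5 days. Relative viability is the nuclei count in treated wells over that in vehicle wells, taken as the median of duplicate plates.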

[2] = compound: CN(NC(=O)CC(=O)NN(C)C(=S)c1ccccc1)C(=S)c1ccccc1 [Elesclomol] + CC(=O)c1c(C)c2cnc(Nc3ccc(N4CCNCC4)cn3)nc2n(C2CCCC2)c1=O [Palbociclib] (partner 0.5 µM)
Summary of the method: as §1

[3] = compound: CN(NC(=O)CC(=O)NN(C)C(=S)c1ccccc1)C(=S)c1ccccc1 [Elesclomol] + Cc1cc(Nc2cc(N3CCN(C)CC3)nc(Sc3ccc(NC(=O)C4CC4)cc3)n2)n[nH]1 [Tozasertib] (partner 0.1 µM)
Summary of the method: as §1

[4] = compound: CN(NC(=O)CC(=O)NN(C)C(=S)c1ccccc1)C(=S)c1ccccc1 [Elesclomol] + Cc1nc(Nc2ncc(C(=O)Nc3c(C)cccc3Cl)s2)cc(N2CCN(CCO)CC2)n1 [Dasatinib] (partner 0.075 µM)
Summary of the method: as §1

[5] = compound: CN(NC(=O)CC(=O)NN(C)C(=S)c1ccccc1)C(=S)c1ccccc1 [Elesclomol] + NC(=O)Nc1cc(-c2cccc(F)c2)sc1C(=O)N[C@H]1CCCNC1 [AZD7762] (partner 0.2 µM)
Summary of the method: as §1

## NCI-H2087
[1]; first compound 0.003162 µM
  relative viability: 0.204
[1]; first compound 0.01 µM
  relative viability: 0.149
[1]; first compound 0.03162 µM
  relative viability: 0.153
[1]; first compound 0.1 µM
  relative viability: 0.0863
[2]; first compound 0.003162 µM
  relative viability: 0.222
[2]; first compound 0.01 µM
  relative viability: 0.188
[2]; first compound 0.03162 µM
  relative viability: 0.176
[2]; first compound 0.1 µM
  relative viability: 0.0806
[3]; first compound 0.003162 µM
  relative viability: 0.18
[3]; first compound 0.01 µM
  relative viability: 0.187
[3]; first compound 0.03162 µM
  relative viability: 0.158
[3]; first compound 0.1 µM
  relative viability: 0.0781
[4]; first compound 0.003162 µM
  relative viability: 0.815
[4]; first compound 0.01 µM
  relative viability: 0.502
[4]; first compound 0.03162 µM
  relative viability: 0.41
[4]; first compound 0.1 µM
  relative viability: 0.152
[5]; first compound 0.003162 µM
  relative viability: 1.23
[5]; first compound 0.01 µM
  relative viability: 0.767
[5]; first compound 0.03162 µM
  relative viability: 0.589
[5]; first compound 0.1 µM
  relative viability: 0.279

## H3255
[1]; first compound 0.003162 µM
  relative viability: 0.585
[1]; first compound 0.01 µM
  relative viability: 0.532
[1]; first compound 0.03162 µM
  relative viability: 0.328
[1]; first compound 0.1 µM
  relative viability: 0.284
[2]; first compound 0.003162 µM
  relative viability: 0.331
[2]; first compound 0.01 µM
  relative viability: 0.309
[2]; first compound 0.03162 µM
  relative viability: 0.285
[2]; first compound 0.1 µM
  relative viability: 0.254
[3]; first compound 0.003162 µM
  relative viability: 0.569
[3]; first compound 0.01 µM
  relative viability: 0.525
[3]; first compound 0.03162 µM
  relative viability: 0.405
[3]; first compound 0.1 µM
  relative viability: 0.364
[4]; first compound 0.003162 µM
  relative viability: 0.387
[4]; first compound 0.01 µM
  relative viability: 0.396
[4]; first compound 0.03162 µM
  relative viability: 0.274
[4]; first compound 0.1 µM
  relative viability: 0.222
[5]; first compound 0.003162 µM
  relative viability: 0.818
[5]; first compound 0.01 µM
  relative viability: 0.773
[5]; first compound 0.03162 µM
  relative viability: 0.584
[5]; first compound 0.1 µM
  relative viability: 0.521

## NCI-H23
[1]; first compound 0.003162 µM
  relative viability: 0.426
[1]; first compound 0.01 µM
  relative viability: 0.404
[1]; first compound 0.03162 µM
  relative viability: 0.208
[1]; first compound 0.1 µM
  relative viability: 0.117
[2]; first compound 0.003162 µM
  relative viability: 0.531
[2]; first compound 0.01 µM
  relative viability: 0.413
[2]; first compound 0.03162 µM
  relative viability: 0.269
[2]; first compound 0.1 µM
  relative viability: 0.127
[3]; first compound 0.003162 µM
  relative viability: 0.349
[3]; first compound 0.01 µM
  relative viability: 0.311
[3]; first compound 0.03162 µM
  relative viability: 0.36
[3]; first compound 0.1 µM
  relative viability: 0.128
[4]; first compound 0.003162 µM
  relative viability: 0.823
[4]; first compound 0.01 µM
  relative viability: 0.725
[4]; first compound 0.03162 µM
  relative viability: 0.743
[4]; first compound 0.1 µM
  relative viability: 0.171
[5]; first compound 0.003162 µM
  relative viability: 0.29
[5]; first compound 0.01 µM
  relative viability: 0.164
[5]; first compound 0.03162 µM
  relative viability: 0.176
[5]; first compound 0.1 µM
  relative viability: 0.108

## HCC-827
[1]; first compound 0.003162 µM
  relative viability: 0.571
[1]; first compound 0.01 µM
  relative viability: 0.442
[1]; first compound 0.03162 µM
  relative viability: 0.555
[1]; first compound 0.1 µM
  relative viability: 0.504
[2]; first compound 0.003162 µM
  relative viability: 0.471
[2]; first compound 0.01 µM
  relative viability: 0.436
[2]; first compound 0.03162 µM
  relative viability: 0.428
[2]; first compound 0.1 µM
  relative viability: 0.626
[3]; first compound 0.003162 µM
  relative viability: 0.432
[3]; first compound 0.01 µM
  relative viability: 0.4
[3]; first compound 0.03162 µM
  relative viability: 0.421
[3]; first compound 0.1 µM
  relative viability: 0.355
[4]; first compound 0.003162 µM
  relative viability: 0.253
[4]; first compound 0.01 µM
  relative viability: 0.217
[4]; first compound 0.03162 µM
  relative viability: 0.276
[4]; first compound 0.1 µM
  relative viability: 0.425
[5]; first compound 0.003162 µM
  relative viability: 0.25
[5]; first compound 0.01 µM
  relative viability: 0.253
[5]; first compound 0.03162 µM
  relative viability: 0.163
[5]; first compound 0.1 µM
  relative viability: 0.191

## HCC-78
[1]; first compound 0.003162 µM
  relative viability: 0.7
[1]; first compound 0.01 µM
  relative viability: 0.549
[1]; first compound 0.03162 µM
  relative viability: 0.674
[1]; first compound 0.1 µM
  relative viability: 0.722
[2]; first compound 0.003162 µM
  relative viability: 0.493
[2]; first compound 0.01 µM
  relative viability: 0.377
[2]; first compound 0.03162 µM
  relative viability: 0.489
[2]; first compound 0.1 µM
  relative viability: 0.466
[3]; first compound 0.003162 µM
  relative viability: 0.378
[3]; first compound 0.01 µM
  relative viability: 0.426
[3]; first compound 0.03162 µM
  relative viability: 0.399
[3]; first compound 0.1 µM
  relative viability: 0.483
[4]; first compound 0.003162 µM
  relative viability: 0.28
[4]; first compound 0.01 µM
  relative viability: 0.407
[4]; first compound 0.03162 µM
  relative viability: 0.319
[4]; first compound 0.1 µM
  relative viability: 0.34
[5]; first compound 0.003162 µM
  relative viability: 0.672
[5]; first compound 0.01 µM
  relative viability: 0.696
[5]; first compound 0.03162 µM
  relative viability: 0.513
[5]; first compound 0.1 µM
  relative viability: 0.642

## NCI-H1975
[1]; first compound 0.003162 µM
  relative viability: 0.356
[1]; first compound 0.01 µM
  relative viability: 0.229
[1]; first compound 0.03162 µM
  relative viability: 0.14
[1]; first compound 0.1 µM
  relative viability: 0.125
[2]; first compound 0.003162 µM
  relative viability: 0.579
[2]; first compound 0.01 µM
  relative viability: 0.263
[2]; first compound 0.03162 µM
  relative viability: 0.205
[2]; first compound 0.1 µM
  relative viability: 0.0984
[3]; first compound 0.003162 µM
  relative viability: 0.733
[3]; first compound 0.01 µM
  relative viability: 0.517
[3]; first compound 0.03162 µM
  relative viability: 0.118
[3]; first compound 0.1 µM
  relative viability: 0.0791
[4]; first compound 0.003162 µM
  relative viability: 0.344
[4]; first compound 0.01 µM
  relative viability: 0.223
[4]; first compound 0.03162 µM
  relative viability: 0.163
[4]; first compound 0.1 µM
  relative viability: 0.0599
[5]; first compound 0.003162 µM
  relative viability: 0.779
[5]; first compound 0.01 µM
  relative viability: 0.406
[5]; first compound 0.03162 µM
  relative viability: 0.292
[5]; first compound 0.1 µM
  relative viability: 0.212

## CAL-12T
[1]; first compound 0.003162 µM
  relative viability: 0.265
[1]; first compound 0.01 µM
  relative viability: 0.139
[1]; first compound 0.03162 µM
  relative viability: 0.113
[1]; first compound 0.1 µM
  relative viability: 0.114
[2]; first compound 0.003162 µM
  relative viability: 0.435
[2]; first compound 0.01 µM
  relative viability: 0.118
[2]; first compound 0.03162 µM
  relative viability: 0.0519
[2]; first compound 0.1 µM
  relative viability: 0.0654
[3]; first compound 0.003162 µM
  relative viability: 0.268
[3]; first compound 0.01 µM
  relative viability: 0.17
[3]; first compound 0.03162 µM
  relative viability: 0.0901
[3]; first compound 0.1 µM
  relative viability: 0.0485
[4]; first compound 0.003162 µM
  relative viability: 0.282
[4]; first compound 0.01 µM
  relative viability: 0.117
[4]; first compound 0.03162 µM
  relative viability: 0.0442
[4]; first compound 0.1 µM
  relative viability: 0.0555
[5]; first compound 0.003162 µM
  relative viability: 0.622
[5]; first compound 0.01 µM
  relative viability: 0.483
[5]; first compound 0.03162 µM
  relative viability: 0.3
[5]; first compound 0.1 µM
  relative viability: 0.17

## NCI-H2126
[1]; first compound 0.003162 µM
  relative viability: 0.554
[1]; first compound 0.01 µM
  relative viability: 0.555
[1]; first compound 0.03162 µM
  relative viability: 0.497
[1]; first compound 0.1 µM
  relative viability: 0.557
[2]; first compound 0.003162 µM
  relative viability: 0.341
[2]; first compound 0.01 µM
  relative viability: 0.357
[2]; first compound 0.03162 µM
  relative viability: 0.352
[2]; first compound 0.1 µM
  relative viability: 0.309
[3]; first compound 0.003162 µM
  relative viability: 0.792
[3]; first compound 0.01 µM
  relative viability: 0.751
[3]; first compound 0.03162 µM
  relative viability: 0.359
[3]; first compound 0.1 µM
  relative viability: 0.337
[4]; first compound 0.003162 µM
  relative viability: 0.659
[4]; first compound 0.01 µM
  relative viability: 0.512
[4]; first compound 0.03162 µM
  relative viability: 0.3
[4]; first compound 0.1 µM
  relative viability: 0.215
[5]; first compound 0.003162 µM
  relative viability: 1.02
[5]; first compound 0.01 µM
  relative viability: 0.972
[5]; first compound 0.03162 µM
  relative viability: 0.95
[5]; first compound 0.1 µM
  relative viability: 0.929
